# Experimental data reported in ChEMBL document CHEMBL1201862, “PubChem BioAssay data set” (2004).
# Active and inactive are the calls of the source.
# Assays:
# [1] = biological target: T1, Replicative DNA helicase DnaB (Mycobacterium tuberculosis, UniProt P9WMR3); experiment: DnaB intein splicing inhibitors, dose response, biochemical, cell-free fluorescence (AID 449749); type: functional
# T1 sequence (P9WMR3 whole entry): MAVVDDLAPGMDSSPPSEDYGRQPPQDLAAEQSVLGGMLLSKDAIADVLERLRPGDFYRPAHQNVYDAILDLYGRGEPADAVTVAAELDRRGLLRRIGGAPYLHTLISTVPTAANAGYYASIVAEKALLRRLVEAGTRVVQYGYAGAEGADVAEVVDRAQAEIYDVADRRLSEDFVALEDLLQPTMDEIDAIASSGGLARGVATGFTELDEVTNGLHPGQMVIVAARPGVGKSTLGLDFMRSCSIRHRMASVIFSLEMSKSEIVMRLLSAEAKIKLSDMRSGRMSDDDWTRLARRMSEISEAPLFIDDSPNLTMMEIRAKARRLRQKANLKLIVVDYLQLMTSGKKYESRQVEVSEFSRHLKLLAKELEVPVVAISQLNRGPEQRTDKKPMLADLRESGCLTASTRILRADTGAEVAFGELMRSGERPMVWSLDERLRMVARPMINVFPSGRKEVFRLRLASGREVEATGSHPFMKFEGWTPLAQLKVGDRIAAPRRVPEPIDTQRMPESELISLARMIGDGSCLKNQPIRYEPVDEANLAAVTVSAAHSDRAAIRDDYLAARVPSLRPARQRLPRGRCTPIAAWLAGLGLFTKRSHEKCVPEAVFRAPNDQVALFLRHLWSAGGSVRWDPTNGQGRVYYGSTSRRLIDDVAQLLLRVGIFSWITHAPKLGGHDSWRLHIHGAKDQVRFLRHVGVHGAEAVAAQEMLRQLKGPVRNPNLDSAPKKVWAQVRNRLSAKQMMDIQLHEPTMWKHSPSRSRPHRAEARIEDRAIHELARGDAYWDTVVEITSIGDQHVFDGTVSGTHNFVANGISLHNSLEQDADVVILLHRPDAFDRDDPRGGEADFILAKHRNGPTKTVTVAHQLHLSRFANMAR
# Protein RecA = biological target: T2, Protein RecA (Mycobacterium tuberculosis, UniProt P9WHJ3); experiment: Fluorescence Cell-Free Homogeneous Dose Retest to Identify Inhibitors of RecA-Intein Splicing Activity. [Related pubchem assays (depositor defined):AID2097, AID2223, AID489010, AID492950]; type: functional
# T2 sequence (P9WHJ3 whole entry): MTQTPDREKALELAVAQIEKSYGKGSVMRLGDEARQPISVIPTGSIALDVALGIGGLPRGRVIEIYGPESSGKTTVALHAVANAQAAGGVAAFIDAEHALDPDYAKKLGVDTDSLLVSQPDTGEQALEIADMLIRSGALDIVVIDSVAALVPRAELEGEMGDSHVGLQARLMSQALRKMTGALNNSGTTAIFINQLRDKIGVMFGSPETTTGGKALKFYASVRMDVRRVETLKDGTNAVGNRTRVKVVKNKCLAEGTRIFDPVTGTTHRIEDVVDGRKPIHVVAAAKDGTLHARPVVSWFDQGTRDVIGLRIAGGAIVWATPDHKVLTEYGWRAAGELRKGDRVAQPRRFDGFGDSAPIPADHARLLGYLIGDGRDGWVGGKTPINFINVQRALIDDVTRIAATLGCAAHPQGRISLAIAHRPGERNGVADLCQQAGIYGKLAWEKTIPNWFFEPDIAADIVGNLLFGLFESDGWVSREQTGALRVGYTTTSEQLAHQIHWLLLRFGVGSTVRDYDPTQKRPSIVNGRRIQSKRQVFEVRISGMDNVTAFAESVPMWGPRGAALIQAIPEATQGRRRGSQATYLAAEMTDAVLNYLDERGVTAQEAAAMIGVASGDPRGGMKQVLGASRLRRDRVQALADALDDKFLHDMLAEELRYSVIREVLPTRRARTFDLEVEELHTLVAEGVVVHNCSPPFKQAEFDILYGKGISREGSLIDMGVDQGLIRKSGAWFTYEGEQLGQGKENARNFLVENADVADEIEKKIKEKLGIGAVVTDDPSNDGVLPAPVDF
# Fatty acid synthase [2] = biological target: T3, Fatty acid synthase (Homo sapiens, UniProt P49327); experiment: inhibition of human FAS-TE enzyme activity – biochemical, endpoint fluorescence intensity, uHTS hits, dose response (AID 624327); type: functional;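 further: fluorescence from hydrolysis of an O-methyl fluorescein acyl ester substrate by the enzyme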
# T3 sequence (P49327 whole entry): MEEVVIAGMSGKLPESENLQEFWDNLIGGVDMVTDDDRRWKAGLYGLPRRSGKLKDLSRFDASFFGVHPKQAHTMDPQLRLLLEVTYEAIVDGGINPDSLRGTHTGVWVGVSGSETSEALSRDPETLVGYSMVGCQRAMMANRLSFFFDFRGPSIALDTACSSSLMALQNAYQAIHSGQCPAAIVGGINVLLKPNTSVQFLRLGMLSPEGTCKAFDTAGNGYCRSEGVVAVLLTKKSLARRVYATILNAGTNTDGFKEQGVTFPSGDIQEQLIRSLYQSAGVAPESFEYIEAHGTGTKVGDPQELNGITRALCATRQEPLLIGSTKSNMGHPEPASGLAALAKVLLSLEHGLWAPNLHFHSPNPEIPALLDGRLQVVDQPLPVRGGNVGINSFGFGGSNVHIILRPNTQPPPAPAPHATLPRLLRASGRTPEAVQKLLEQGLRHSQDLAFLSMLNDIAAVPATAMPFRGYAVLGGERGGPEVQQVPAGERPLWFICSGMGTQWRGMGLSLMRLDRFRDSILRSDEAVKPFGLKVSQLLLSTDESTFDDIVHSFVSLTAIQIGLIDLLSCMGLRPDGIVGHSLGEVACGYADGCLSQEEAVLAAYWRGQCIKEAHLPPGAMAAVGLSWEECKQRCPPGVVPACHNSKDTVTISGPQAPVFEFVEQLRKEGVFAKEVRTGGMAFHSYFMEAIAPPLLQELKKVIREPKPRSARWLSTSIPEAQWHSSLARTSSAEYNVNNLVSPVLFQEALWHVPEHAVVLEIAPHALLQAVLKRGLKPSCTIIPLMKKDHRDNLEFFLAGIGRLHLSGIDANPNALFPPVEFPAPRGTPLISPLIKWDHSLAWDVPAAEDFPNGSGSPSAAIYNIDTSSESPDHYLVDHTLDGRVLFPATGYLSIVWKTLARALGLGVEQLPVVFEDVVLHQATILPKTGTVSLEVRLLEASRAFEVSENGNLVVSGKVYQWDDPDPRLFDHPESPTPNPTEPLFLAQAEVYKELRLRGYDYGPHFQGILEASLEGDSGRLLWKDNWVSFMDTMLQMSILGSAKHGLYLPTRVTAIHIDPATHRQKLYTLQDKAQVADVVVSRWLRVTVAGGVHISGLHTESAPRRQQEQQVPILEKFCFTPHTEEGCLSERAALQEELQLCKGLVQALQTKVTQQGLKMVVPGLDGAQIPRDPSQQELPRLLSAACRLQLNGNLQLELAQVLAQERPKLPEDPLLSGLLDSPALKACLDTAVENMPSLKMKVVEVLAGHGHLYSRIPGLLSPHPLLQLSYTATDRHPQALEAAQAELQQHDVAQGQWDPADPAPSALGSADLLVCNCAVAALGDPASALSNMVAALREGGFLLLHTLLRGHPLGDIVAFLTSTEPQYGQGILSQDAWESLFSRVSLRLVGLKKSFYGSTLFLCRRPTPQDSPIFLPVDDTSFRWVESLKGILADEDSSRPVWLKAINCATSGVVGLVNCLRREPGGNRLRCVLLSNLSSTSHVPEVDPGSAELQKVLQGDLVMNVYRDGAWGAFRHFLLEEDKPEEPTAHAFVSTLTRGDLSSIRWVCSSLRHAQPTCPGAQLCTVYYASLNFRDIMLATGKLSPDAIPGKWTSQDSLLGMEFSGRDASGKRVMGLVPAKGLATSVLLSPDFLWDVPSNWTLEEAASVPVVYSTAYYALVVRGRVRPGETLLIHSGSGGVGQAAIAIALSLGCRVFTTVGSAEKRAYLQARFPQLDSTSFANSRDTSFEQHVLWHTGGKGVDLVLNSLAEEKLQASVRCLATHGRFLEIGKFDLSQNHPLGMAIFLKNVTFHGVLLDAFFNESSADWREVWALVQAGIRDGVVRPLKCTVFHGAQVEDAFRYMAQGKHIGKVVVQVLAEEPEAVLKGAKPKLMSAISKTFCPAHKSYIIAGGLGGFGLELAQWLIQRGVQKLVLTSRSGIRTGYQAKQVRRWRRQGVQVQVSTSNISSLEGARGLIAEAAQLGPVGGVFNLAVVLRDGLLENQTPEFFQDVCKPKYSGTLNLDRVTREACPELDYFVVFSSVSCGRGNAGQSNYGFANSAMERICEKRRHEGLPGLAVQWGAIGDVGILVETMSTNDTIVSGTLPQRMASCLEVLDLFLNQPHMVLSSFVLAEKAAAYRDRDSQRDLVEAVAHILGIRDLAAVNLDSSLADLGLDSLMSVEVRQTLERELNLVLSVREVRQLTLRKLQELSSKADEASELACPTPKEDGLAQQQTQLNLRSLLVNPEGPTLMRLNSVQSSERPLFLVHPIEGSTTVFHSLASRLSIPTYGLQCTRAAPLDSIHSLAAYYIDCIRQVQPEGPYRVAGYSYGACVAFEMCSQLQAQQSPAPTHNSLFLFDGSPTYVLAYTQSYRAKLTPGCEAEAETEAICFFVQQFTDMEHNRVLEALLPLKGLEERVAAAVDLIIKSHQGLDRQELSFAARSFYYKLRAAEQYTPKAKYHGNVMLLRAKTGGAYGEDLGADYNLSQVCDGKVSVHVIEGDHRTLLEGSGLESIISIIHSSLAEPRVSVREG
# Fatty acid synthase [3] = biological target: T3, Fatty acid synthase; experiment: inhibition of human FAS-TE enzyme activity – biochemical, kinetic fluorescence intensity, dose response (AID 624326); type: functional;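 further: rate of fluorescence rise from hydrolysis of a fluorogenic O-methyl fluorescein ester substrate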
# [4] = biological target: T4, Short transient receptor potential channel 4 (Mus musculus, UniProt Q9QUQ5); experiment: calcium entry via TRPC4 opening agents – cell-based, HEK293 TRPC4/mu-opioid, Fluo-4 calcium, dose response (AID 434937); type: functional
# T4 sequence (Q9QUQ5 whole entry): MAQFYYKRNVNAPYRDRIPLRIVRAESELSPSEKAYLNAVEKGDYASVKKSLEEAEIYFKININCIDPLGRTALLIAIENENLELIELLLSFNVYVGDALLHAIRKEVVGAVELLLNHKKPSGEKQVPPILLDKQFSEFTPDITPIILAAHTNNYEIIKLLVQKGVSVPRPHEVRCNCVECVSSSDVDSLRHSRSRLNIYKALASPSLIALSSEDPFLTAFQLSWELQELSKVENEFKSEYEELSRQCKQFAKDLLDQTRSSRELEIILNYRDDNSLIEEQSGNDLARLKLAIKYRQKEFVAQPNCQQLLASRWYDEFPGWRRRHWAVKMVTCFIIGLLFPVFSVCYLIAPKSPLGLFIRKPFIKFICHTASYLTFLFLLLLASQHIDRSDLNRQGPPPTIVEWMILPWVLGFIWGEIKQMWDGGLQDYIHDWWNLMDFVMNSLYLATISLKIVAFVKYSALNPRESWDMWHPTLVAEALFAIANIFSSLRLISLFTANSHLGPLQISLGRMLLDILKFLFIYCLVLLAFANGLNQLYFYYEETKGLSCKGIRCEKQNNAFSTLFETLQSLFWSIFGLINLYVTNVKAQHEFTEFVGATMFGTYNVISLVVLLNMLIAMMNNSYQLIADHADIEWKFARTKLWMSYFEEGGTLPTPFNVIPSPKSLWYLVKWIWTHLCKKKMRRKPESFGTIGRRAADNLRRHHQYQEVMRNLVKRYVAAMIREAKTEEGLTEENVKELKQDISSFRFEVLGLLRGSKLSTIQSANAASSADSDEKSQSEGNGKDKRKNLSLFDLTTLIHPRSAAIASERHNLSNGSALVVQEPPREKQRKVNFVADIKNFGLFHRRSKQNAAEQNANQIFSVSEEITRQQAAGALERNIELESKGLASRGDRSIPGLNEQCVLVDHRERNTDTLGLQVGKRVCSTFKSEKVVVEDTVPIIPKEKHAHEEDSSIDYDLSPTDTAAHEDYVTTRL
# [5] = biological target: FAD-linked sulfhydryl oxidase ALR (Homo sapiens, UniProt P55789); experiment: ALR-catalysed DTT oxidation blockers – biochemical, H2O2 detection, luminescence, cherry-pick, dose response (AID 493248)
# Chain of FAD-linked sulfhydryl oxidase ALR (P55789 whole entry): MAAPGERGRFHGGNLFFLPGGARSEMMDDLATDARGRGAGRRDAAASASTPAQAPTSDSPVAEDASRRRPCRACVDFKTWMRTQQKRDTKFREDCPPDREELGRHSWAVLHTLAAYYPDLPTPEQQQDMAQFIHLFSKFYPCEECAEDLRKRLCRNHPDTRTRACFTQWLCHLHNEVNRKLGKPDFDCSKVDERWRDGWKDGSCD
# cells [6] = type: functional, cell-based
# cells [7] = type: functional, cell-based; remark: listed apart in the source
# [8] = Trypanosoma cruzi growth suppression in host cells – NIH3T3 host cells, beta-gal luminescence, confirmation (AID 2044); type: functional, cell-based;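 further: intracellular parasites grown in NIH/3T3 mouse fibroblasts as host cells; luminescent beta-galactosidase reporter signal from transgenic T. cruzi replicating inside host cells; inhibitors lower the luminescence signal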
# [9] = NIH3T3 cell viability loss – ATP luminescence, mouse fibroblasts, counter-screen, dose response (AID 2010); type: functional, cell-based;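 further: cells exposed to compound for about 90 hours before reading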
# [10] = Luminescence Cell-Based Dose Retest to Confirm Inhibitors of Cancer Stem Cells. [Related pubchem assays (depositor defined):AID2717, AID2721]; type: functional; settings: Homo sapiens
# [11] = tested on: Streptococcus sp. 'group A'; experiment: Streptococcus pyogenes SK(-)GAS viability under kanamycin – luminescence, BacTiterGlo, confirmation, counter-screen for streptokinase expression inhibitor project, dose response (AID 1900); type: functional, organism-based
# Streptococcus = experiment: GAS UMAA2166 growth inhibition – luminescence, BacTiterGlo, counter-screen for streptokinase expression inhibitor project, dose response (AID 1915); type: functional, organism-based;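 further: potency for reduction of bacterial viability or growth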
# Cytochrome P450 2C9 = Cytochrome P450 2C9 (Homo sapiens, UniProt P11712)
# Chain of Cytochrome P450 2C9 (P11712 whole entry): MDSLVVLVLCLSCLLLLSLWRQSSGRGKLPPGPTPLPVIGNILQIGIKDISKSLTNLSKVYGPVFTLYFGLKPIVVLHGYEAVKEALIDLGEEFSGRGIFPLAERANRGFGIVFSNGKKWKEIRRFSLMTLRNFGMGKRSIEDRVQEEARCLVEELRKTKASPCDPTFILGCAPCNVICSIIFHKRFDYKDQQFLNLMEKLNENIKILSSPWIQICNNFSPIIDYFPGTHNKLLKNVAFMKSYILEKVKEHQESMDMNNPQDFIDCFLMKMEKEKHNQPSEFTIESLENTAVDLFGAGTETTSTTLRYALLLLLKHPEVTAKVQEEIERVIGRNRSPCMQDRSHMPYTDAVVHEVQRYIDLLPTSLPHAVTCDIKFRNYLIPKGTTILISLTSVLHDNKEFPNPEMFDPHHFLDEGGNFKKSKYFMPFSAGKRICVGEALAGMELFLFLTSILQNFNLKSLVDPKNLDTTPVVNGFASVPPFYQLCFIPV
# [12] = luciferase reporter signal suppression in cells – H4 neuroglioma cells, luminescence, dose response (AID 1990); type: functional, cell-based
# [13] = Luminescence Cell-Based Dose Response HTS to Identify Inhibitors of 5'UTR Stem-Loop Driven Prion Protein mRNA Translation in H4 Neuroglioblastoma Cells. [Related pubchem assays: 1827 (Project Summary), 1813 (Primary HTS)]; type: functional
# [14] = alpha-synuclein stem-loop luciferase translation blockers – H4 neuroglioma cells, luminescence, confirmation (AID 1988); type: functional, cell-based
# INS1 = experiment: INS-1E survival protection against cytokine death – cell-based, luminescence, retest, dose response (AID 449756); type: functional; settings: Rattus norvegicus;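 further: cell death triggered by IL-1 beta plus TNF-alpha plus IFN-gamma mixture; protective hits raise ATP signal compared with cytokine alone wells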
# [15] = reduction of Shn3 3'UTR-driven luciferase in osteoblasts – cell-based, Clone20 osteoblasts, firefly luciferase, cherry-picked, dose response (AID 624132); type: functional;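 further: firefly luciferase luminescence from reporter carrying the Shn3 3'UTR in osteoblasts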
# [16] = loss of viability in HepG2 cells – cell-based, CellTiter-Glo, cherry-picked, cytotoxicity control for Shn3 inhibitor project, dose response (AID 624134); type: functional
# [17] = non-specific 3'UTR reporter inhibition in Clone20-Shn3RL – cell-based, Renilla luciferase, cherry-picked, counter-screen for Shn3 inhibitor project, dose response (AID 624133); type: functional
smiles,measurement,setting,value
CCCCCCOC(=O)c1ccccc1NC(=O)/C=C/C(=O)O,AC50,[1],> 380 µM (inactive)
same,EC50,Protein RecA,3.41 µM (active)
CC(C)(C)C(=O)Nc1nc(C2CCCN2S(=O)(=O)c2ccc(Cl)cc2)cs1 (stereo not given),IC50,Fatty acid synthase [2],9.08 µM (active)
same,IC50,Fatty acid synthase [3],8.77 µM (active)
CCN1CCN(Cc2cc(Br)cc(Br)c2O)CC1,EC50,[4],0.0667 µM (active)
same,AC50,[5],11.2 µM (active)
O=C(NC1=NCCS1)c1cccc(NC(=O)c2ccco2)c1,EC50,cells [6],> 350 µM (not active)
same,EC50,cells [7],> 350 µM (not active)
CCN1CCN(CCCOc2ccc(-c3ccccc3)cc2)CC1,EC50,cells [6],> 350 µM (not active)
same,EC50,[8],0.799 µM (active)
same,EC50,cells [7],> 350 µM (not active)
same,EC50,[9],4.6 µM (active)
same,AC50,[10],4.69 µM (active)
O=C(COC(=O)c1cc([N+](=O)[O-])ccc1N1CCOCC1)NCc1ccc(Cl)cc1Cl,IC50,Fatty acid synthase [2],0.912 µM (active)
same,IC50,Fatty acid synthase [3],1.05 µM (active)
CC1=NNC(=O)C1C(c1ccc(Cl)cc1)C(C#N)C#N (stereo not given),AC50,[1],7.84 µM (active)
same,EC50,Protein RecA,3.26 µM (active)
CCn1c(=O)c(C(=O)NNC(=O)c2ccccc2F)c(O)c2ccccc21,EC50,[11],4.54 µM (active)
same,EC50,Streptococcus,11.5 µM (active)
same,EC50,[4],6.68 µM (active)
O=C(NNS(=O)(=O)c1ccc([N+](=O)[O-])cc1)c1cnn(-c2ccccc2)c1-n1cccc1,IC50,Fatty acid synthase [2],4.5 µM (active)
same,IC50,Fatty acid synthase [3],4.35 µM (active)
Cc1ccc(Sc2c([N+](=O)[O-])ncn2C)cc1,AC50,[5],0.27 µM (active)
same,AC50,[1],112 µM (active)
same,EC50,Protein RecA,34.6 µM (active)
same,AC50,Cytochrome P450 2C9,1.58 µM (inconclusive)
CC1(C)CC(NC(=O)CCC2CCCC2)CC(C)(C)N1,EC50,cells [6],> 350 µM (not active)
same,EC50,cells [7],> 350 µM (not active)
COc1ccc(CNCCc2c(C)[nH]c3ccc(OC(F)(F)F)cc23)c(OC)c1,EC50,[12],17.7 µM (active)
same,EC50,[13],> 120 µM (not active)
same,EC50,[14],> 120 µM (not active)
same,EC50,[8],0.703 µM (active)
same,EC50,[9],> 60 µM (not active)
same,AC50,INS1,4.68 µM (active)
same,AC50,[15],0.963 µM (active)
same,AC50,[16],9.13 µM (active)
same,AC50,[17],8.45 µM (active)
O=C(NC(=S)Nc1ccccn1)c1cc(-c2ccccc2)nc2ccccc12,EC50,cells [6],> 350 µM (not active)
same,EC50,cells [7],47.1 µM (active)
CCCc1n[nH]c2c1C(c1ccccc1OC)C(C#N)=C(N)O2 (stereo not given),AC50,[1],15.9 µM (active)
same,EC50,Protein RecA,2.07 µM (active)
Cc1ccc(C(=O)NCCNc2ncc(C(F)(F)F)cc2Cl)cc1[N+](=O)[O-],IC50,Fatty acid synthase [2],8.99 µM (active)
same,IC50,Fatty acid synthase [3],9.8 µM (active)
Clc1cc(Cl)cc(C2=NC(Cc3ccccc3)CO2)c1 (stereo not given),EC50,[4],5.31 µM (active)
CN(C)C(CNC(=O)Nc1cccc(Cl)c1)c1cccnc1 (stereo not given),EC50,[4],0.0267 µM (active)
O=S(=O)(Nc1cccc(-n2cnnn2)c1)c1cnc(Cl)c(Cl)c1,IC50,Fatty acid synthase [2],5.37 µM (active)
same,IC50,Fatty acid synthase [3],8.01 µM (active)
COc1ccccc1CNc1nc(NCc2ccc(C(C)C)cc2)c2sccc2n1,AC50,[15],6.81 µM (active)
same,AC50,[16],39.4 µM (active)
same,AC50,[17],10.5 µM (active)
O=C(N/N=C\c1c(O)ccc2ccccc12)c1ccc(Cn2cccn2)o1,EC50,cells [6],82 µM (active)
same,EC50,cells [7],> 350 µM (not active)
same,AC50,INS1,1.23 µM (active)
CC1(C)CC(=O)C=C(c2ccc(COC(=O)c3ccccc3)cc2)C1=O,IC50,Fatty acid synthase [2],7.19 µM (active)
same,IC50,Fatty acid synthase [3],3.75 µM (active)
